Patent USRE45916E1, “Intraoperative imaging of renal cortical tumors and cysts” (University of Rochester, priority 2006, dated 2016)
Entries after “also recorded” stand apart in the source; their conditions may differ. Where two headings read alike, the source gives them in different places.

Key:
[1] = mammals, several months after the treatment, cited from earlier work
intrinsic brain tumors = details: nine patients, ICG as intravenous contrast-enhancement agent; cited from earlier work
[2] = Animal studies: ICG injected into the penis to image nerves, kidney fluorescence observed; assay type: in vivo; details: animals
Excerpt: The present invention stems in part from studies we took in using the near infrared fluorescent dye indocyanine green (“ICG”) to image cavernous nerves of the penis. When abdominal incisions were made, we noted that the kidneys were fluorescent for hours to days after ICG administration, even though ICG is cleared quickly from the circulation. Because we are urologists, we are aware that kidney tumors tend to be hypervascular and develop rich vascular beds that are not uniform. We formed the hypothesis that the vascular beds would tend to impede the flow of ICG out of the tumor. We realized that any difference in admission or retention of fluorescent dye between normal and tumor tissue would result in different amounts of fluorescence, and that these differences could be exploited to detect the presence or absence of tumors in areas of the kidney. We hypothesized that kidney tumors would tend to retain ICG more than areas of the kidney with normal vasculature, and that areas within the kidney that fluoresced when exposed to light of an appropriate excitation frequency would identify the presence of tumors.
Typically, the dye is administered sufficiently before the intended surgery to permit the kidney to take up the dye, but not so long before the surgery that the dye has been cleared by the liver or otherwise eliminated from the body. […]

[3] = Clinical trial: safety of intravenous ICG in nephrectomy patients; assay type: in vivo, human; details: ten patients, ICG intravenously
Experimental: Following Institutional Review Board approval, a clinical trial of the invention was conducted. Ten patients presenting for radical or partial nephrectomy were enrolled in the trial. After the kidney was mobilized (typically, only one of the patient's kidneys is involved in such operations), ˜10 cc (2.5 mg/ml) of ICG was injected intravenously. Shortly after injection, near infrared fluorescence (NIRF) imaging was conducted and recorded using a LUNA™ NIRF system (Novadaq Technologies Inc, Mississauga, Canada).
Microscopy and histological studies were performed on excised tissue. […] Histological examination using hematoxylin and eosin staining confirmed the location of differential ICG fluorescence in tumor and normal renal tissue. All surgical margins were negative: 4 mm (the range of the margin was from 2-10 mm).

[4] = system: renal cortical tumors and cysts; assay: Clinical trial: intraoperative near infrared fluorescence (NIRF) imaging of the kidney after intravenous ICG in radical or partial nephrectomy patients; assay type: in vivo, human
Experimental: Following Institutional Review Board approval, a clinical trial of the invention was conducted. Ten patients presenting for radical or partial nephrectomy were enrolled in the trial. After the kidney was mobilized (typically, only one of the patient's kidneys is involved in such operations), ˜10 cc (2.5 mg/ml) of ICG was injected intravenously. Shortly after injection, near infrared fluorescence (NIRF) imaging was conducted and recorded using a LUNA™ NIRF system (Novadaq Technologies Inc, Mississauga, Canada). The first two patients selected presented for radical nephrectomy. […] After removal, the kidneys were studied by NIRF imaging to confirm that normal and tumor tissue could be distinguished. […] Eight of these patients were studied.

[5] = cited from earlier work

SMILES | neuronal toxicity [1] | neuronal toxicity ([1]; listed as fluorogold) | dynamic optical signals of brain tissue and tumors (intrinsic brain tumors) | optical imaging of resection margins in malignant tumors (intrinsic brain tumors) | kidney fluorescence 18 hours after injection ([2]; ICG injected into the penis, 18 hours after injection) | duration of kidney fluorescence after ICG administration ([2]; seen at abdominal incision) | effects of the dye on post-operative hepatorenal function [3] | hypersensitivity reactions [3] | surgical margins ([4]; partial nephrectomy under NIRF imaging) | fluorescence of complex / hemorrhagic cysts under NIRF imaging ([4]; patients, ICG intravenously) | fluorescence of normal kidney tissue under NIRF imaging ([4]; patients, ICG intravenously) | fluorescence of kidney tumors under NIRF imaging ([4]; patients, ICG intravenously, ~10 cc (2.5 mg/ml), against normal kidney parenchyma) | fluorescence of benign cysts under NIRF imaging ([4]; patients, ICG intravenously, compared to normal parenchyma) | metabolism ([5]; in the body) | excretion ([5]; in vivo) | reabsorption from the intestine / enterohepatic recirculation ([5]; in vivo) | distribution after intravenous injection ([5]; with normal vascular permeability)
N=C(N)c1ccc(/C=C/c2ccc(C(=N)N)cc2O)cc1 [Fluorogold] | low evidence of neuronal toxicity | without evidence of neuronal toxicity | – | – | – | – | – | – | – | – | – | – | – | – | – | – | –
CC1(C)C(/C=C/C=C/C=C/C=C2\N(CCCCS(=O)(=O)O)c3ccc4ccccc4c3C2(C)C)=[N+](CCCCS(=O)(=O)[O-])c2ccc3ccccc3c21 [ICG, indocyanine green] | – | – | differences in the dynamic optical signals among normal brain, low-grade astrocytomas, and malignant astrocytomas | differences between adjacent normal tissue and remaining tumor tissue | intense fluorescence | hours to days | No hypersensitivity reactions or effects of the dye on post-operative hepatorenal function were observed | No hypersensitivity reactions | negative | hypo- or non-fluorescent; also recorded: NIRF characteristics of renal cell carcinoma | fluoresced brightly; also recorded: brightly fluorescent | non-fluorescing “black” or hypofluorescent “gray” areas; also recorded: hypo- or non-fluorescent areas; also recorded: hypo-fluorescent or non-fluorescent areas | even more fluorescent than did normal tissue; also recorded: increased fluorescence compared to the normal parenchyma | not metabolized in the body | excreted exclusively by the liver | not reabsorbed from the intestine and does not undergo enterohepatic recirculation | remains intravascular
